“And” between values parts separate entries of the source, which are not always exact repeats. Identical values can stand only once.
How the values were obtained:
[1] = target: T1, human platelet MAO-B (Homo sapiens, UniProt P27338); experiment: biochemical; conditions: 10^-5 M; read-out: Inhibition rate of MAO-B
T1 construct: The suspension was used as enzyme for MAO activity assay in blood platelets; from tissue; host or cells: human blood platelets (frozen, thawed and sonicated platelet rich plasma)
T1 sequence (P27338 1-520): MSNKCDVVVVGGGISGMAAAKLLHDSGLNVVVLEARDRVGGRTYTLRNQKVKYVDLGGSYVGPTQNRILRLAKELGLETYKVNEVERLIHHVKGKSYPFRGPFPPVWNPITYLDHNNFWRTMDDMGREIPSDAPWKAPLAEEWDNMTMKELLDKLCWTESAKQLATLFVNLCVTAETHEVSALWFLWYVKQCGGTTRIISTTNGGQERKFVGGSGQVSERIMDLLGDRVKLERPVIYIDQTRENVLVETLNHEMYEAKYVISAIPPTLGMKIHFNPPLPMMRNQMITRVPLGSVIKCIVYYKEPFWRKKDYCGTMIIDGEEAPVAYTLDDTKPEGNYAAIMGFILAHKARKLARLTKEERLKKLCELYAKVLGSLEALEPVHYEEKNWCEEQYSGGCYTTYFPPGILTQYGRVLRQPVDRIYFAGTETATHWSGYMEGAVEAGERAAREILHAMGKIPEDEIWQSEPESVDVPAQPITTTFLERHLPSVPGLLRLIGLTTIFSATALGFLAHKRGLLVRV
Description: Human blood added with 3.8% citric acid was centrifuged at 950 rpm for 10 min and platelet rich plasma (PRP) was obtained. The residual blood cell was centrifuged at 3,000 rpm for 10 min and platelet poor plasma (PPP) was obtained. After blood platelets were measured from a part of PRP, PRP and PPP were frozen at -20° C. They were thawed and were sonicated to be dispersed and suspended when MAO activity was measured. The suspension was used as enzyme for MAO activity assay in blood platelets. In addition, almost all of MAO in blood platelets have been known to be B type.
MAO-B activity was determined according to the method described in Biochem. Pharmacol., 14, 1684-1685 (1965). […] The mixture was incubated at 37° C. for 5 min. After 80 μl of PRP or PPP was added to it, the mixture was incubated at 37° C. for 20 min. Thereafter, 120 μl of substrate (0.33 mg/ml kynuramine dihydrobromide) was added thereto. After incubation at 37° C. for 30 min, 800 μl of 10% trichloroacetic acid were added to stop the reaction and the solution was centrifuged at 3,000 rpm for 10 min. To 1 ml of the supernatant, 2 ml of 1 N NaOH was added and fluorescence of the solution was measured at Ex 312 nm and Em 380 nm. PRP was prepared to 250,000 cell/μl as amounts of blood platelets with […] phosphate buffer solution and 4-hydroxyquinoline was used as standard for measurement.

[2] = Toxicity screening using primary cultured hepatocyte (LDH release); format: cell-based, rat; conditions: rat, primary hepatocytes, 24 hr, control 0.5% saline or 0.5% DMSO, read-out: Percent control of LDH release
Description: The hepatocytes was prepared from rat liver by collagenase perfusion method and suspension containing 5×10^5 cells/ml were prepared. After cultivation for 24 hr, the suspension was exchanged to the William's Medium E (GIBCO BRL) containing 10 or 100 μM of the compounds of this invention. After cultivation for 24 hr, the activity of lactate dehydrogenase (LDH) released in the medium was measured.

[3] = tested on: rats reduced learning ability by tetrabenazine; experiment: Conditioned avoidance task in the shuttle box (tetrabenazine-treated rats); format: in vivo, rat; conditions: tetrabenazine 1 mg/kg s.c., significance and direction
Method in brief: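 Male and female rats (200–220 g) were trained in a shuttle box (light/buzzer conditioned stimulus, 100 trials/day for 5 days). Tetrabenazine 1 mg/kg s.c. was given 1 h before testing, with compound at 1, 2, 2.5 or 5 mg/kg s.c. given together with tetrabenazine. CARs, EFs and IRs were counted automatically and analysed by multi-way ANOVA.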

[4] = tested on: dopamine release, striatum; experiment: Release of biogenic amines from brain tissue: dopamine, striatum; format: in vivo, Wistar rats

Row | SMILES | inhibition at 10 µM [1] [%] | activity at 24 h, 10 µM [2] [%] | activity at 24 h, 100 µM [2] [%] | Condition Avoidance Reflex (CARs) ([3]; 1 mg/kg s.c., Hydrochloride) | Condition Avoidance Reflex (CARs) ([3]; 2.5 mg/kg s.c.) | Escape Failures (EFs) ([3]; 2.5 mg/kg s.c.) | Condition Avoidance Reflex (CARs) ([3]; 5 mg/kg s.c.) | Escape Failures (EFs) ([3]; 5 mg/kg s.c.) | Intersignal Reactions (IRs) ([3]; 5 mg/kg s.c.) | Release of dopamine, striatum ([4]; 0.005 mg/kg s.c.) | Release of dopamine, striatum ([4]; 0.01 mg/kg s.c., Hydrochloride) | Release of dopamine, striatum ([4]; 0.05 mg/kg s.c.) | Release of dopamine, striatum ([4]; 0.25 mg/kg s.c.) | Release of dopamine, striatum ([4]; 1.00 mg/kg s.c.) | Release of dopamine, striatum ([4]; 5.00 mg/kg s.c.) | Condition Avoidance Reflex (CARs) ([3]; 1 mg/kg s.c.) | Escape Failures (EFs) ([3]; 1 mg/kg s.c.) | Release of dopamine, striatum ([4]; 0.10 mg/kg s.c.)
1 | CCCNC(CCC)Cc1c[nH]c2ccccc12.Cl (stereo not shown) [Compound No. 20, 1-(Indol-3-yl)-2-propylaminopentane Hydrochloride] | 6.4 | 92.7 ± 5.31 | 185 ± 3.45 | * .Arrow-up bold. | **** .Arrow-up bold. | **** .dwnarw. | **** .Arrow-up bold. | * .dwnarw. | * .dwnarw. | 5.8 ± 0.11 nmol/g tissue, for 20 min | 6.5 ± 0.12 nmol/g tissue, for 20 min and 5.8 ± 0.18 nmol/g tissue, for 20 min | 5.6 ± 0.13 nmol/g tissue, for 20 min | 3.2 ± 0.05 nmol/g tissue, for 20 min | 4.2 ± 0.15 nmol/g tissue, for 20 min | 4.7 ± 0.13 nmol/g tissue, for 20 min | – | – | –
2 | CCCNC(CCC)Cc1ccc2c(c1)OCO2.Cl (stereo not shown) [Compound No. 27, 1-(1,3-Benzodioxol-5-yl)-2-propylaminopentane Hydrochloride] | 34 | 115 ± 10.8 | 114 ± 11.2 | – | – | – | – | – | – | – | – | – | 4.1 ± 0.24 nmol/g tissue, for 20 min | – | – | *** .Arrow-up bold. | *** .dwnarw. | 3.4 ± 0.10 nmol/g tissue, for 20 min

Reference: US6214859A, “Ethylamine derivatives” (Fujimoto Brothers Co., Ltd., priority 1997, dated 2001)
